# Results from US8546320B2, “Hsp9O-targeted anti-cancer chimeric peptide” (Kyoto University, priority 2008, dated 2013).
# Like-named read-outs stand apart in the source and are kept apart here. Where a SMILES comes first, the peptide text is derived from it.
# What was measured:
# Caki-1 [1] = format: cell-based, human; settings: Caki-1, 68 μM
# Description: The TPR peptide or the TPR scramble peptide was mixed with a commercially available transfection reagent (Profect-P2 or, Lipofectamine LTX) and the mixture was left to incubate at room temperature for 20 minutes, to form liposome before the complex was added to cancer cells (Caki-1 (kidney cancer cells)); the survival rate of the cells was then measured by using WST-8 solution (Cell Count Reagent SF; Nacalai Tesque, Inc.) and the results were compared with those such as in the case of the TPR scramble peptide or the liposome alone.
# [2] = target: T1, interaction between Hsp90 and the Hop's TPR2A domain (Homo sapiens, UniProt P07900); assay: BIACORE competition: Hsp90 pre-mixed with peptide, added to immobilized TPR2A; format: binding; settings: increasing peptide concentration
# T1 construct: histidine tag; made in house; host or cells: Hsp90: E. coli BL21 (pDEST17-Hsp90)
# Source text: It was examined whether the TPR peptide designed could compete specifically with the interaction between Hsp90, which is essential for the accurate folding of some carcinogenic protein including survivin in cancer cells, and the Hop's TPR2A domain.
# BXPC-3 = format: cell-based, human
# T47D = format: cell-based, human; settings: T47D
# Description: A total of 3×10^3 cells were inoculated per well on a 96 well plate and cultured in a medium containing 10% FBS for 24 hours, and incubated with 100 μl of a peptide having a gradual increase in concentration at 37° C. for 48 to 72 hours. The survival rate of the cells was measured by using WST-8 solution (Cell Count Reagent SF; Nacalai Tesque, Inc.).
# U937 = assay: cells; format: cell-based, human; settings: for Anti-cancer activity (% relative to wild-type peptide) / Decrease in cell survival rate (% relative to wild-type peptide): wild-type peptide = 100%
# Description: A total of 3×10^3 cells per well were inoculated onto a 96 well plate, and incubated in a medium containing 10% FBS with 100 μl of a peptide diluted stepwise at 37° C. for 48 to 72 hours. The survival rate of the cells was measured by using WST-8 solution (Cell Count Reagent SF; Nacalai Tesque, Inc.).
# cancer cells = assay: Cell viability assay, summary statements on cancer cells; format: cell-based; settings: single mutation in TPR or Antp region of Antp-TPR
# Caki-1 [3] = format: cell-based, human; settings: Caki-1; wild-type peptide = 100%
Compound,inhibition of the interaction between Hsp90 and TPR2A [2],Cell Survival Rate (%) (U937),Anti-cancer activity (% relative to wild-type peptide) (U937; U937),Decrease in cell survival rate (% relative to wild-type peptide) (U937; U937),effect compared with the wild-type protein (summary of mutations) (cancer cells),Anti-cancer activity (% relative to wild-type peptide) (Caki-1 [3]),Decrease in cell survival rate (% relative to wild-type peptide) (Caki-1 [3]),other results
"CC[C@H](C)[C@H](NC(=O)[C@H](C)NC(=O)[C@H](C)NC(=O)[C@H](CO)NC(=O)[C@H](Cc1ccccc1)NC(=O)[C@H](CCCCN)NC(=O)[C@@H](N)CCCNC(=N)N)C(=O)NCC(=O)N[C@@H](Cc1ccc(O)cc1)C(=O)N[C@@H](CC(N)=O)C(=O)N[C@@H](CCCCN)C(=O)N[C@@H](Cc1ccc(O)cc1)C(=O)O [TPR scramble, reference compound] (H-RKFSAAIGYNKY-OH; N-terminus and C-terminus assumed)",does not inhibit the interaction completely,,,,,,,killing effect after introduction with transfection reagent (Caki-1 [1]): not observed
"TPR mutant 1: TPR mutant 1 peptide without Antp, SEQ ID No. 70; sequence not printed in the text (KAYAAAGNSYTFK; TPR mutant 1)",does not inhibit the interaction completely,,,,,,,
CC[C@H](C)[C@H](NC(=O)[C@H](CCCNC(=N)N)NC(=O)[C@H](C)NC(=O)[C@H](Cc1ccc(O)cc1)NC(=O)[C@H](C)NC(=O)[C@H](CCCCN)NC(=O)[C@H](CCCNC(=N)N)NC(=O)[C@H](CCCNC(=N)N)NC(=O)[C@H](CCCNC(=N)N)NC(=O)[C@H](CCC(N)=O)NC(=O)[C@H](CCCNC(=N)N)NC(=O)[C@H](CCCNC(=N)N)NC(=O)[C@H](CCCCN)NC(=O)[C@H](CCCCN)NC(=O)[C@H](CCCNC(=N)N)NC(=O)CNC(=O)[C@@H](N)Cc1ccc(O)cc1)C(=O)NCC(=O)N[C@@H](CC(N)=O)C(=O)N[C@@H](CO)C(=O)N[C@@H](Cc1ccc(O)cc1)C(=O)N[C@@H](Cc1ccccc1)C(=O)N[C@@H](CCCCN)C(=O)O (H-YGRKKRRQRRRKAYARIGNSYFK-OH),,,,,,,,"Cell Survival Rate (%) (BXPC-3; Bxpc3, 21 μM): 82.25%; Cell Survival Rate (%) (BXPC-3; Bxpc3, 42 μM): 73.08%; Cell Survival Rate (%) (BXPC-3; Bxpc3, 84 μM): 60.49%; Cell Survival Rate (%) (BXPC-3; Bxpc3, 168 μM): 47.24%; Cell Survival Rate (%) (T47D; 21 μM): 77.68%; Cell Survival Rate (%) (T47D; 42 μM): 58.60%; Cell Survival Rate (%) (T47D; 84 μM): 74.23%; Cell Survival Rate (%) (T47D; 168 μM): 17.92%"
CC[C@H](C)[C@H](NC(=O)[C@H](CCCNC(=N)N)NC(=O)[C@H](C)NC(=O)[C@H](Cc1ccc(O)cc1)NC(=O)[C@H](C)NC(=O)[C@H](CCCCN)NC(=O)[C@H](CCCCN)NC(=O)[C@H](CCCCN)NC(=O)[C@H](Cc1c[nH]c2ccccc12)NC(=O)[C@H](CCCCN)NC(=O)[C@H](CCSC)NC(=O)[C@H](CCCNC(=N)N)NC(=O)[C@H](CCCNC(=N)N)NC(=O)[C@H](CC(N)=O)NC(=O)[C@H](CCC(N)=O)NC(=O)[C@H](Cc1ccccc1)NC(=O)[C@H](Cc1c[nH]c2ccccc12)NC(=O)[C@@H](NC(=O)[C@H](CCCCN)NC(=O)[C@@H](NC(=O)[C@H](CCC(N)=O)NC(=O)[C@@H](N)CCCNC(=N)N)[C@@H](C)CC)[C@@H](C)CC)C(=O)NCC(=O)N[C@@H](CC(N)=O)C(=O)N[C@@H](CO)C(=O)N[C@@H](CO)C(=O)N[C@@H](Cc1ccccc1)C(=O)N[C@@H](CCCCN)C(=O)O [Antp-Y10S] (H-RQIKIWFQNRRMKWKKKAYARIGNSSFK-OH; N-terminus and C-terminus assumed),,28.05%,93.73%,82.83%,effect similar to that of the wild-type protein,74.56%,31.97%,
CC[C@H](C)[C@H](NC(=O)[C@H](CCCCN)NC(=O)[C@@H](NC(=O)[C@H](CCC(N)=O)NC(=O)[C@@H](N)CCCNC(=N)N)[C@@H](C)CC)C(=O)N[C@@H](Cc1c[nH]c2ccccc12)C(=O)N[C@@H](Cc1ccccc1)C(=O)N[C@@H](CCC(N)=O)C(=O)N[C@@H](CC(N)=O)C(=O)N[C@@H](CCCNC(=N)N)C(=O)N[C@@H](CCCNC(=N)N)C(=O)N[C@@H](CCSC)C(=O)N[C@@H](CCCCN)C(=O)N[C@@H](Cc1c[nH]c2ccccc12)C(=O)N[C@@H](CCCCN)C(=O)N[C@@H](CCCCN)C(=O)N[C@@H](CCCCN)C(=O)N[C@@H](C)C(=O)N[C@@H](Cc1ccc(O)cc1)C(=O)N[C@@H](C)C(=O)N[C@@H](CCCNC(=N)N)C(=O)N[C@@H](CCCNC(=N)N)C(=O)NCC(=O)N[C@@H](CC(N)=O)C(=O)N[C@@H](CO)C(=O)N[C@@H](Cc1ccc(O)cc1)C(=O)N[C@@H](Cc1ccccc1)C(=O)N[C@@H](CCCCN)C(=O)O [Antp-I6R] (H-RQIKIWFQNRRMKWKKKAYARRGNSYFK-OH; N-terminus and C-terminus assumed),,91.60%,10.92%,25.36%,effective but with a lower effect than the wild-type protein,1.95%,10.87%,
CC[C@H](C)[C@H](NC(=O)[C@H](CCCNC(=N)N)NC(=O)[C@H](C)NC(=O)[C@H](Cc1ccc(O)cc1)NC(=O)[C@H](C)NC(=O)[C@H](CCCCN)NC(=O)[C@H](CCCCN)NC(=O)[C@H](CCCCN)NC(=O)[C@H](Cc1c[nH]c2ccccc12)NC(=O)[C@H](CCCCN)NC(=O)[C@H](CCSC)NC(=O)[C@H](CCCNC(=N)N)NC(=O)[C@H](CCCNC(=N)N)NC(=O)[C@H](CC(N)=O)NC(=O)[C@H](CCC(N)=O)NC(=O)[C@H](Cc1ccccc1)NC(=O)[C@H](Cc1c[nH]c2ccccc12)NC(=O)[C@@H](NC(=O)[C@H](CCCCN)NC(=O)[C@@H](NC(=O)[C@H](CCC(N)=O)NC(=O)[C@@H](N)CCCNC(=N)N)[C@@H](C)CC)[C@@H](C)CC)C(=O)NCC(=O)N[C@@H](CCC(N)=O)C(=O)N[C@@H](CO)C(=O)N[C@@H](Cc1ccc(O)cc1)C(=O)N[C@@H](Cc1ccccc1)C(=O)N[C@@H](CCCCN)C(=O)O [Antp-N8Q] (H-RQIKIWFQNRRMKWKKKAYARIGQSYFK-OH; N-terminus and C-terminus assumed),,10.06%,117.17%,230.94%,effect higher than the wild-type protein,98.57%,89.35%,killing effect compared with the wild-type peptide (U937; U937): increase in effect
